# Data as given in the Deep4Chem optical property database.
# Assay: solvent given as SMILES
compound,measurement,setting,value
COc1ccccc1C1=C2C=CC(=[N+](C)C)C=C2[Si](C)(C)c2cc(N(C)C)ccc21,absorption maximum,in O,649 nm
CCCCC(CC)COc1cc(OCC(CC)CCCC)c2c#cc3ccc4oc5ccc(c#cc6cc(c#cc7ccc8oc9ccc(c#cc1c2)cc9c8c7)c(C(CCCC)OCCC)cc6C(CCCC)OCCC)cc5c4c3 (stereo unspecified),absorption maximum,in ClCCl,328 nm
Cc1ccc(/C2=c3\cc/c(o3)=C(\c3ccc(C)cc3)c3ccc([nH]3)-c3ccc4n3[B-](F)(F)[N+]3=C(C=CC3=C4c3ccco3)c3ccc2[nH]3)cc1,absorption maximum,in ClC(Cl)Cl,722 nm
O=S1(=O)c2ccc(-c3ccc(N(c4ccccc4)c4ccccc4)cc3)cc2C2(c3ccccc3-c3ccccc32)c2cc(-c3ccc(N(c4ccccc4)c4ccccc4)cc3)ccc21,absorption maximum,in ClCCl,363 nm
CC1(C)C(/C=C/C2=C(Cl)C(=C/C=C3/N(Cc4ccc([N+](=O)[O-])cc4)c4ccccc4C3(C)C)/CCC2)=[N+](Cc2ccc([N+](=O)[O-])cc2)c2ccccc21,absorption maximum,in CO,785 nm
CC(C)(C)c1ccc2c(c1)c1cc(C(C)(C)C)ccc1n2-c1cc(N2c3ccccc3C(c3ccccc3)(c3ccccc3)c3ccccc32)cc(-n2c3ccc(C(C)(C)C)cc3c3cc(C(C)(C)C)ccc32)c1C#N,absorption maximum,in Cc1ccccc1,378 nm
Cc1cc(C)c(B(c2ccc(C#Cc3cc4ccc5cc(C#Cc6ccc(B(c7c(C)cc(C)cc7C)c7c(C)cc(C)cc7C)cc6)cc6ccc(c3)c4c56)cc2)c2c(C)cc(C)cc2C)c(C)c1,absorption maximum,in Cc1ccccc1,414 nm
CC1=CC(/C=C/c2ccc(N(C)C)cc2)=[N+]2C1=C(c1ccccc1)c1c(C)cc(/C=C/c3ccc(N(C)C)cc3)n1[B-]2(F)F,absorption maximum,in ClC(Cl)Cl,700 nm
C1=Cc2ccccc2C(=Cc2ccc(C=C3c4ccccc4-c4ccccc43)cc2)c2ccccc21,absorption maximum,in C1CCOC1,360 nm
N#Cc1ccc(/C=C2\N=C(c3ccccc3)OC2=O)cc1,absorption maximum,in C1COCCO1,369 nm
CC(C)[Si](C#Cc1c2cc3ccccc3cc2c(C#Cc2ccc(Br)cc2)c2cc3ccccc3cc12)(C(C)C)C(C)C,absorption maximum,in ClCCl,654 nm
CCCCCCOc1cc(/C=C/c2cc(OCCCCCC)c(/C=C/c3cc(OCCCCCC)c(/C=C4\C(=O)c5ccccc5C4=C(C#N)C#N)cc3OCCCCCC)cc2OCCCCCC)c(OCCCCCC)cc1/C=C1\C(=O)c2ccccc2C1=C(C#N)C#N,absorption maximum,in ClCCl,611 nm
F[B-]1(F)n2cccc2C(c2ccccc2)=C2C=CC(c3ccc(OC4=[N+]5C(=C(c6ccccc6)c6cc(Br)c(Br)n6[B-]5(F)F)C=C4Br)cc3)=[N+]21,absorption maximum,in ClC(Cl)Cl,562 nm
Cn1nc(-c2ccccc2)c2nc3cc(Cl)ccc3nc21,absorption maximum,in C1CCCCC1,428 nm
same,absorption maximum,in C1CCOC1,429 nm
same,absorption maximum,in CC#N,427 nm
CN(C)c1ccc(C#Cc2cc(C#Cc3ccc(N(C)C)cc3)c3ccc4c(C#Cc5ccc(N(C)C)cc5)cc(C#Cc5ccc(N(C)C)cc5)c5ccc2c3c54)cc1,absorption maximum,in ClCCl,508 nm
CN(C)c1ccc(/C=C/c2cc[n+](C)c3ccccc23)cc1,absorption maximum,in CC(C)=O,540 nm
same,absorption maximum,in ClCCl,581 nm
same,absorption maximum,in O,510 nm
c1ccc(-c2nc(-c3ccc(N4c5ccccc5Oc5ccccc54)cc3)nn2-c2ccc(N3c4ccccc4Oc4ccccc43)cc2)nc1,absorption maximum,in ClCCl,333 nm
O=C1c2ccc3c4c(Oc5ccccc5)cc5c6c(ccc(c7c(Oc8ccccc8)cc(c2c37)C(=O)N1c1ccc(O)cc1)c64)C(=O)N(c1ccc(O)cc1)C5=O,absorption maximum,in C1CCOC1,513 nm
same,absorption maximum,in CN1CCCC1=O,487 nm
same,absorption maximum,in CN(C)C=O,495 nm
Cc1ccc(/C=C/c2nc(-c3cccc([N+](=O)[O-])c3)[nH]c2/C=C/c2ccc(C)cc2)cc1,absorption maximum,in ClCCl,370 nm
CC(C)(C)c1ccc2c(c1)c1cc(C(C)(C)C)cc3c1n2B1c2c-3cccc2-c2cc(C(C)(C)C)cc3c4cc(C(C)(C)C)ccc4n1c23,absorption maximum,in C1CCOC1,387 nm
CC1=CC(C)=[N+]2C1=C(c1ccc(I)cc1)c1c(C)cc(C)n1[B-]21Oc2ccc3ccccc3c2-c2c(ccc3ccccc23)O1,absorption maximum,in ClC(Cl)Cl,506 nm
N#Cc1ccc2[nH]ccc2c1,absorption maximum,in C1COCCO1,274.85 nm
same,absorption maximum,in CC#N,275 nm
same,absorption maximum,in O,275 nm
CC1=CC(/C=C/c2ccc3ccc4cccc5ccc2c3c45)=[N+]2C1=C(c1ccccc1)c1c(C)cc(/C=C/c3ccc4ccc5cccc6ccc3c4c56)n1[B-]2(F)F,absorption maximum,in CC1CCCO1,691 nm
N#Cc1c(N2CCCCC2)cc(-c2cccs2)c2c1-c1cccc3cccc-2c13,absorption maximum,in O,458 nm
CCCCCCCCN1C(=O)c2ccc3c4c(-c5ccc(N(c6ccccc6)c6ccccc6)cc5)cc5c6c(cc(-c7ccc(N(c8ccccc8)c8ccccc8)cc7)c(c7ccc(c2c37)C1=O)c64)C(=O)N(CCCCCCCC)C5=O,absorption maximum,in ClC(Cl)Cl,606 nm
CC(C)(C)c1ccc2c3c(c4ccc(C(C)(C)C)cc4c2c1)=[N+]1C(=C(c2ccccc2)c2c(Br)c4c5ccc(C(C)(C)C)cc5c5cc(C(C)(C)C)ccc5c4n2[B-]1(F)F)C=3Br,absorption maximum,in C1CCCCC1,689 nm
same,absorption maximum,in C1CCOC1,686 nm
same,absorption maximum,in CC#N,682 nm
same,absorption maximum,in Cc1ccccc1,691 nm
same,absorption maximum,in ClCCl,689 nm
C(=C\c1c2ccccc2cc2ccccc12)/c1c2ccccc2cc2ccccc12,absorption maximum,in C1CCOC1,400 nm
CCCCOC(=O)c1cc(Cl)c2c3c(Cl)cc4c5c(cc(Cl)c(c6c(Oc7ccc(C(=O)OC)cc7)cc(C(=O)OCCCC)c1c26)c53)C(=O)N(c1c(C(C)C)cccc1C(C)C)C4=O,absorption maximum,in Cc1ccccc1,507 nm
Cc1ccccc1/C(C#N)=C/c1ccc(N(C)C)cc1,absorption maximum,in C1CCOC1,376 nm
same,absorption maximum,in C1COCCO1,376 nm
same,absorption maximum,in CC#N,377 nm
same,absorption maximum,in CCCCCC,364 nm
same,absorption maximum,in CCCCCCC,376 nm
same,absorption maximum,in CCCCCO,376 nm
same,absorption maximum,in CCCCO,376 nm
same,absorption maximum,in CCCO,374 nm
same,absorption maximum,in CCO,376 nm
same,absorption maximum,in CCOC(C)=O,373 nm
same,absorption maximum,in CN(C)C=O,382 nm
same,absorption maximum,in CO,374 nm
same,absorption maximum,in CS(C)=O,385 nm
same,absorption maximum,in Cc1ccccc1,366 nm
same,absorption maximum,in ClC(Cl)Cl,378 nm
CCN1CCN(c2ccc(/N=N/c3ccc(C(=O)OC)cc3)cc2)CC1,absorption maximum,in CCOC(C)=O,419 nm
Cn1nc(-c2ccc(C#N)cc2)cc1-c1ccccc1,absorption maximum,in ClCCl,282 nm
CCCCn1c2ccc(-c3ccc4c(c3)c3c5c(ccc6ccc7ccccc7c65)ccc3n4CCCC)cc2c2c3c(ccc4ccc5ccccc5c43)ccc21,absorption maximum,in ClCCl,336 nm
CCCC(=O)c1c(OCOC)c(OCOC)c(C(=O)CCC)c2c1OCO2,absorption maximum,in CC#N,332 nm
CCCCCc1ccc(-c2ccc(C#Cc3cc(C#Cc4ccc(-c5ccc(CCCCC)cc5)cc4)c4ccc5c(C(=O)c6ccccc6)cc(C#Cc6ccc(-c7ccc(CCCCC)cc7)cc6)c6ccc3c4c65)cc2)cc1,absorption maximum,in ClCCl,466 nm
C[C@]12SC(=O)C=C1c1nc(-c3ccccc3O)[nH]c1C1=CC(=O)S[C@@]12C,absorption maximum,in CC#N,455 nm
N#Cc1cc(-c2ccc(/C=C/c3ccc(N(c4ccccc4)c4ccccc4)cc3)c(C#N)c2)ccc1/C=C/c1ccc(N(c2ccccc2)c2ccccc2)cc1,absorption maximum,in ClCCl,428 nm
Cc1ccccc1-c1ccccc1C,absorption maximum,in C1CCCCC1,260.08 nm
CN(C)c1ccc2cc3ccc(=[N+](C)C)cc-3oc2c1,absorption maximum,in CCO,547 nm
same,absorption maximum,in O,548 nm
c1ccc(C2=C(c3ccccc3)c3cccc4c5c(cc(c34)O2)=NC2CCCCC2N=5)cc1 (stereo unspecified),absorption maximum,in ClCCl,431 nm
COC(=O)c1ccc(/N=N/c2cc3c4c(c2)CCCN4CCC3)cc1,absorption maximum,in CCOC(C)=O,474 nm
N#CC1=CC(/C=C/c2ccccc2)=CC(C#N)=P1(c1ccccc1)c1ccccc1,absorption maximum,in ClC(Cl)Cl,506 nm
CCN1CCN(c2ccc(/N=N/c3cc(C(F)(F)F)cc(C(F)(F)F)c3)cc2)CC1,absorption maximum,in CCOC(C)=O,427 nm
COC(=O)c1ccc(/C=C/C(F)(F)F)c(N)c1,absorption maximum,in C1CCOC1,372 nm
CC1=C(/C=C/c2ccccc2)C2=Cc3c(/C=C/c4ccccc4)c(C)c(C)n3[B-](F)(F)[N+]2=C1C,absorption maximum,in CC#N,572 nm
COC(=O)C1CCN(c2ccc3c(N4CCCCC4)c4ccc(=[N+]5CCC(C(=O)OC)CC5)cc-4oc3c2)CC1 (stereo unspecified),absorption maximum,in ClCCl,482 nm
O=C(O)c1ccc2cc3cc(C(=O)O)ccc3cc2c1,absorption maximum,in C1CCOC1,409 nm
same,absorption maximum,in CN(C)C=O,409 nm
N=C(N)N,absorption maximum,in O,265 nm
C[n+]1ccc(-c2cc[n+](C)cc2)cc1,absorption maximum,in CC#N,260 nm
CN1c2cc3nc4cc(Br)c(Br)cc4nc3cc2N(C)C1(C)C,absorption maximum,in CCO,473 nm
Oc1cc(-c2cccs2)ccc1-c1nc2ccccc2s1,absorption maximum,in ClCCl,364 nm
COc1ccc(N(c2ccc(OC)cc2)c2ccc(-c3ccc4nc5ccccc5c(=O)n4c3)cc2)cc1,absorption maximum,in ClCCl,361 nm
ClP1(Cl)=N[P@](Cl)(Oc2ccc3ccc4cccc5ccc2c3c45)=N[P@@](Cl)(Oc2ccc3ccc4cccc5ccc2c3c45)=N1,absorption maximum,in ClCCl,343 nm
c1ccc(-n2nc(-c3ccc(-c4ccc5c(c4)C(c4ccccc4)(c4ccccc4)c4ccccc4-5)cc3)nc2-c2ccccn2)cc1,absorption maximum,in ClCCl,323 nm
Cc1nc2c(c[n+]1C)CN1C(=O)N([C@H]3O[C@@H](CO)[C@H](O)[C@@H]3O)C=CC1=N2,absorption maximum,in CC#N,390 nm
same,absorption maximum,in CC(C)=O,391 nm
same,absorption maximum,in CCCCO,390 nm
same,absorption maximum,in CCCO,390 nm
same,absorption maximum,in CCO,390 nm
same,absorption maximum,in CO,390 nm
same,absorption maximum,in O,384 nm
same,absorption maximum,in [2H]OC,390 nm
same,absorption maximum,in [2H]OCC,390 nm
same,absorption maximum,in [2H]O[2H],384 nm
N#Cc1ccccc1N1c2ccccc2C(c2ccccc2)(c2ccccc2)c2ccccc21,absorption maximum,in Cc1ccccc1,356 nm
CC(C)(C)c1ccc2c(c1)c1cc(C(C)(C)C)ccc1n2-c1cc(C(=O)c2ccccn2)cc(-n2c3ccc(C(C)(C)C)cc3c3cc(C(C)(C)C)ccc32)c1,absorption maximum,in Cc1ccccc1,394 nm
CCCCCCn1c2ccccc2c2cc3c4cc5c6ccccc6n(CCCCCC)c5cc4c4cc5c(C)cc(=O)oc5cc4c3cc21,absorption maximum,in ClC(Cl)Cl,393 nm
CC1(C)C(/C=C/C2=C(Oc3ccc(CCN=C=S)cc3Br)C(=C/C=C3/N(CCCS(=O)(=O)[O-])c4ccccc4C3(C)C)/CCC2)=[N+](CCCS(=O)(=O)[O-])c2ccccc21,absorption maximum,in CO,768 nm
Cc1ccsc1-c1cc2c3cc(-c4sccc4C)c4nc(C(F)(F)C(F)(F)C(F)(F)F)nc5c(-c6sccc6C)cc(c6cc(-c7sccc7C)c7nc(C(F)(F)C(F)(F)C(F)(F)F)nc1c7c26)c3c45,absorption maximum,in C1CCOC1,532 nm
